# Measurements as given in patent publication US20030236218A1, “Aryl phosphate derivatives of d4T with selective activity against adenovirus and HIV” (priority 2002, published 2003).
# Like-named read-outs stand apart in the source and are kept apart here.
# Legend:
# HSV Type II strain G = assay: HSV-2 plaque formation assay in VERO cells; assay type: cell-based, herpes simplex virus Type II; conditions: Human alphaherpesvirus 2, HSV-2, Strain G
# Source text: (§1) Virus stocks. The HIV-1 strain used in this study was HTLV-IIIB (Uckun et al., 1998 Antimicro. Agents and Chemother., 42:383-388). The non-HIV viruses included in the present study were the gancyclovir-sensitive cytomegalovirus (CMV) strain AD169 (ATCC VR-538); acyclovir-sensitive herpes simplex virus (HSV) Type I strain HF (ATCC VR-260); acyclovir-sensitive HSV Type II strain G (ATCC VR-734); adenovirus strain Type 5, strain adenoid 75 (ATCC VR-5); enterovirus strain, ECHO 30, strain Bastianni (ATCC VR-322); and respiratory syncytial virus (RSV), strain Long (ATCC VR-26).
# (§2) Plaque formation assays. Plaque assays were used to examine the activity of the compounds against non-HIV viruses. The skin fibroblast cell line SF (ATCC CRL-2097) was used as a target for AD169, Adenovirus Type 5. […] cell line (ATCC CCL-81) was used as a target for HSV HF and G. The HEP-2 cell line (ATCC CCL-23) was used as a target for the RSV strain Long. These cell lines were cultured at 1×10^5 cells/well in 24-well (all but ECHO 30-infected SF) or 6-well (ECHO 30-infected SF) tissue culture plates with 0.9% methylcellulose or 0.4% SeaPlaque agarose semisolid support. […] Percent inhibition of plaque formation was calculated by comparing the plaque numbers from the test substance-treated infected cells with the plaque numbers from untreated infected cells (i.e., virus controls). The IC50 values were determined using the Statview statistics program (SAS Institute, Inc., Cary, N.C.).
# (§3) Statistical analysis. […] An IC50 value was calculated from each set of triplicate wells using nonlinear regression modeling of the exponential form of the linearized equation (Statview, SAS Institute, Inc., Cary, N.C.). […]
# (§4) The skin fibroblast cell line SF (ATCC CRL-2097) was used as a target for AD169, Adenovirus Type 5, and ECHO 30; the VERO cell line (ATCC CCL-81) was used as a target for HF and G; and the HEP-2 cell line (ATCC CCL-23) was used as target for the RSV strain Long. Results are expressed as the average IC50 values in μM. […]
# [1] = Stability in murine liver homogenates; assay type: in vitro ADME, Balb/c mice; conditions: 100 μM; Balb/c mouse liver homogenate
# Protocol: At a predetermined time, an aliquot (100 μl) of spiked liver homogenate was extracted by adding 400 μl of acetone to induce precipitation of proteins, as described above.
# [2] = tested on: enterovirus strain, ECHO 30, strain Bastianni; assay: Enterovirus plaque formation assay in SF cells; assay type: cell-based
# Source text: as §1, §2, §3, §4
# [3] = Hydrolysis rate in alkali conditions; assay type: physicochemical
# Protocol: (§5) Statistical analysis. Each drug was tested at 6-7 different concentrations ranging from 0.0001 μM to 100 μM. Each assay was set up in triplicate wells and repeated 1-3 times. An IC50 value was calculated from each set of triplicate wells using nonlinear regression modeling of the exponential form of the linearized equation (Statview, SAS Institute, Inc., Cary, N.C.). Hydrolysis rates were determined by fitting single exponential decay equations to the disappearance of the compound in alkali conditions (all R^2 values greater than 0.85). The IC50 values obtained were correlated to the log transformed hydrolysis rate constants by fitting a linear model (JMP Software, SAS Institute Inc., Cary, N.C.). P-values less than 0.05 were deemed significant.
# [4] = tested on: adenovirus strain Type 5, strain adenoid 75; assay: Adenovirus plaque formation assay in skin fibroblast cell line SF; assay type: cell-based, human adenovirus
# Source text: as §1
# Plaque formation assays. Plaque assays were used to examine the activity of the compounds against non-HIV viruses. The skin fibroblast cell line SF (ATCC CRL-2097) was used as a target for AD169, Adenovirus Type 5. […] cell line (ATCC CCL-81) was used as a target for HSV HF and G. The HEP-2 cell line (ATCC CCL-23) was used as a target for the RSV strain Long. These cell lines were cultured at 1×10^5 cells/well in 24-well (all but ECHO 30-infected SF) or 6-well (ECHO 30-infected SF) tissue culture plates with 0.9% methylcellulose or 0.4% SeaPlaque agarose semisolid support. Minimum Essential Medium (MEM) with Earle's salts (Gibco), L-glutamine, non-essential amino acids, 2% heat-inactivated fetal bovine serum, 1% penicillin/streptomycin, and 0.05% gentamicin served as the culture medium. The incubation times were 3 days for HF, G, ECHO 30, and Long; and 7 days for AD169 and Adenovirus Type 5. Plaque counting was performed with a 20X dissecting microscope for AD169, Type 5, ECHO 30, and RSV Long, and with a light box for HF and G. The fixative agent was crystal violet for all viruses, except for the CMV strain AD169 for which methylene blue was used. Percent inhibition of plaque formation was calculated by comparing the plaque numbers from the test substance-treated infected cells with the plaque numbers from untreated infected cells (i.e., virus controls). The IC50 values were determined using the Statview statistics program (SAS Institute, Inc., Cary, N.C.).
# as §5, with “Hydrolysis rates were determined by fitting single exponential decay equations to the disappearance of the compound in alkali conditions (all R^2 values greater than 0.85).” left out
# The skin fibroblast cell line SF (ATCC CRL-2097) was used as a target for AD169, Adenovirus Type 5, and ECHO 30; the VERO cell line (ATCC CCL-81) was used as a target for HF and G; and the HEP-2 cell line (ATCC CCL-23) was used as target for the RSV strain Long. Results are expressed as the average IC50 values in μM. Stavudine (STV) was included as a control.
# [5] = Pharmacokinetic studies in mice, intravenous administration; assay type: in vivo, Balb/c mice; conditions: for AUC: read-out: AUC (converted); for Vd: read-out: Vss; for Tmax: read-out: tmax (converted)
# Protocol: Female Balb/c mice (6-8 weeks old) from Taconic (Germantown, N.Y.) were housed in a controlled environment (12-hours of light/12-hours of dark, 22±1° C., 60±10% relative humidity), which is fully accredited by the USDA. All rodents were housed in microisolator cages (Lab Products, Inc., NJ) containing autoclaved bedding. The mice were allowed free access to autoclaved pellet food and tap water throughout the study.
# Blood samples (˜500 μL) were obtained from the ocular venous plexus by retro-orbital venipuncture at 0, 2, 5, 10, 15, 30, 45, 60, 120, 240 and 360 minutes after intravenous injection.
# All collected blood samples were heparinized and centrifuged at 7000×g for 5 minutes to separate the plasma fraction from the whole blood. The plasma samples were then processed immediately using the extraction procedure described above.
# Pharmacokinetic modeling and parameter calculations were carried out using the WinNonlin Professional Version 3.0 (Pharsight, Inc., Mountain, Calif.) pharmacokinetics software (Chen et al., Pharm. Res., 16, 1003 (1999); Chen et al., Pharm. Res., 16, 117 (1999); Chen et al., J. Clin. Pharmacol., 39, 1248 (1999); Uckun et al., Clin. Cancer Res., 5, 2954 (1999); and Uckun et al., J. Pharmacol. Exp. Ther., 291, 1301 (1999)). An appropriate model was chosen on the basis of the lowest sum of weighted squared residuals, the lowest Schwartz Criterion (SC), the lowest Akaike's Information Criterion (AIC) value, the lowest standard errors of the fitted parameters, and the dispersion of the residuals. The elimination half-life was estimated by linear regression analysis of the terminal phase of the plasma concentration-time profile. The area under the concentration-time curve (AUC) was calculated according to the linear trapezoidal rule between the first sampling time (0 hours) and the last sampling time plus C/k, where C is the concentration of the last sampling and k is the elimination rate constant. The systemic clearance (CL) was determined by dividing the dose by the AUC. The metabolic clearance of the parent drug, the formation clearance of the metabolite, the clearance elimination of the metabolite, and the distribution clearance of the metabolite were estimated by simultaneous fitting of the concentration of parent drug and metabolites as a function of time curve to pharmacokinetic models (see FIGS. 7A & 8A) specified as a system of differential equations (Gabrielsson & Weiner, Phamacokinetic/Phamacodynamic Data Analysis: Concepts and Applications, Swedish Pharmaceutical Press (1997)).
# Stability in whole blood = assay type: in vitro ADME
# Protocol: The whole blood samples were placed in a 37° C. water bath, while plasma samples were stored at −20° C. At a predetermined time, an aliquot (100 μl) of spiked whole blood or plasma was extracted by adding 400 μl of acetone to induce precipitation of proteins, as described above.
# Solubility = assay type: physicochemical; conditions: read-out: Solubility
# [6] = tested on: respiratory syncytial virus (RSV), strain Long; assay: RSV plaque formation assay in HEP-2 cells; assay type: cell-based; conditions: human respiratory syncytial virus
# Source text: as §1, §2, §3, §4
# [7] = dogs; twice daily hard gelatin capsules 25 mg/kg -100 mg/kg; cumulative dose levels as high as 8.4 g/kg; cited from earlier work
# [8] = tested on: cytomegalovirus (CMV) strain AD169; assay: CMV plaque formation assay in SF cells; assay type: cell-based; conditions: Human betaherpesvirus 5
# Source text: as §1, §2, §3, §4
# [9] = after i.v. compound 113, model fit, C.V. of modeling in parentheses
# [10] = female, Balb/c, mouse, in vivo, iv, 100 mg/kg, plasma analyte = label, after i.v. 100 mg/kg compound 113, estimate from composite curve of pooled data
# [11] = female, Balb/c, mouse, in vivo, iv, 100 mg/kg, plasma analyte = label, after i.v. 100 mg/kg compound 113, mean ± S.E.M
# [12] = female, Balb/c, mouse, in vivo, iv
# [13] = female, Balb/c, mouse, in vivo, iv, 40 mg/kg, after i.v. 40 mg/kg d4T, estimate from composite curve of pooled data
# [14] = female, Balb/c, mouse, in vivo, iv, 40 mg/kg, after i.v. 40 mg/kg d4T, mean ± S.E.M
# [15] = female, Balb/c, mouse, in vivo, iv, 75 mg/kg, plasma analyte = label, after i.v. 75 mg/kg Ala-d4T-MP, estimate from composite curve of pooled data
# [16] = female, Balb/c, mouse, in vivo, iv, 75 mg/kg, plasma analyte = label, after i.v. 75 mg/kg Ala-d4T-MP, mean ± S.E.M
smiles,measurement,setting,value
"COC(=O)C(C)NP(=O)(OC[C@@H]1C=C[C@H](n2cc(C)c(=O)[nH]c2=O)O1)Oc1ccc(Br)cc1 (stereo partly shown) [Compound 113, 5′-[4-Bromophenyl methoxylaninylphosphate]-2′, 3′-didehydro-3′-deoxy thymidine]",IC50,HSV Type II strain G,> 100 µM
same,time to decomposition in liver homogenate,[1],≤ 30 min
same,IC50,[2],> 100 µM
same,Hydrolysis Rate,[3],0.0210 min⁻¹
same,IC50,"[4]; Adenovirus Type 5, 7 days, ± s.e., read-out: IC50, ADV-induced plaque formation",0.0223 ± 0.009 µM
same,IC50,"[4]; Skin fibroblast, […], read-out: IC50, ADV-induced plaque formation, Adenovirus Type 5, 7 days, ± s.e.",0.022 ± 0.009 µM
same,CLm1 (metabolic clearance of compound 113 / formation clearance of Ala-d4T-MP),[5]; [9],83.9 mL/min/kg
same,CLm2 (metabolic clearance of compound 113 / formation clearance of d4T),[5]; [9],87.4 mL/min/kg
same,AUC,[5]; [10],19 µM·h
same,Vd,[5]; [10],0.82 L/kg
same,Cmax,[5]; [11],212 µM
same,clearance,[5]; [11],174 mL/min/kg
same,half-life,[5]; [11],3.6 min
same,AUC,[5]; [11],17.9 µM·h
same,Vd,[5]; [11],0.92 L/kg
same,time to complete decomposition in whole blood,"Stability in whole blood; 250 μM, 37° C.",≤ 30 min
same,decomposed in whole blood,"Stability in whole blood; 250 μM, 37° C., 5 minutes",68%
same,decomposed in whole blood,"Stability in whole blood; 250 μM, 37° C., 10 minutes",87%
same,decomposed in whole blood,"Stability in whole blood; 250 μM, 37° C., 15 minutes",92%
same,stability in whole blood (in words),"Stability in whole blood; spiked whole blood 37° C., 250 μM compound 113, 100 μM Ala-d4T-MP (followed for 1 day)",very unstable
same,Solubility,Solubility,3 mg/mL
same,IC50,[6]; HEp-2,> 100 µM
same,tolerability of four-week treatment course,[7],very well tolerated
same,IC50,[8],> 100 µM
"Cc1cn([C@H]2C=C[C@@H](CO)O2)c(=O)[nH]c1=O [d4T, 2′, 3′-Didehydro-3′-deoxy thymidine, reference compound]",IC50,HSV Type II strain G,> 100 µM
same,IC50,"[2]; ECHO 30, SF cells, plaque assay, read-out: IC50",> 100 µM
same,IC50,"[4]; Skin fibroblast, […], Adenovirus Type 5, 7 days, ± s.e., read-out: IC50, ADV-induced plaque formation",12.3 ± 0.3 µM
same,CLme (elimination of d4T derived from Ala-d4T-MP),"[5]; after i.v. Ala-d4T-MP, model fit, C.V. of modeling in parentheses",88.4 (13.0%) ml/min/kg
same,CLme2 (elimination of d4T from the body),[5]; [9],47.1 (74.1%) ml/min/kg
same,CLme2 (elimination of d4T from the body),[5]; [12],62.0 mL/min/kg
same,CLme (elimination of d4T derived from Ala-d4T-MP),[5]; [12],88.4 mL/min/kg
same,fraction of parent converted to the metabolite,[5]; [12],15%
same,fraction of parent converted to the metabolite (fm),[5]; [12],24%
same,Cmax,[5]; [13],280 µM
same,clearance,[5]; [13],15 mL/min/kg
same,half-life,[5]; [13],30.3 min
same,AUC,[5]; [13],204 µM·h
same,Vd,[5]; [13],0.658 L/kg
same,Cmax,[5]; [14],319 µM
same,clearance,[5]; [14],15.2 mL/min/kg
same,half-life,[5]; [14],26.6 min
same,Vd,[5]; [14],0.582 L/kg
same,Cmax,[5]; [15],35.2 µM
same,half-life,[5]; [15],34 min
same,AUC,[5]; [15],31.5 µM·h
same,Tmax,[5]; [15],4.4 min
same,Cmax,[5]; [16],35.9 µM
same,half-life,[5]; [16],32.4 min
same,AUC,[5]; [16],30.3 µM·h
same,Tmax,[5]; [16],5 min
same,Cmax,[5]; [10],15.7 µM
same,half-life,[5]; [10],115 min
same,AUC,[5]; [10],48.6 µM·h
same,Tmax,[5]; [10],18.7 min
same,half-life,[5]; [11],116 min
same,AUC,[5]; [11],47.6 µM·h
same,Tmax,[5]; [11],17.4 min
same,AUC,"[5]; female, Balb/c, mouse, plasma, iv, after i.v. 40 mg/kg d4T, mean ± S.E.M",203 µM·h
same,Solubility,Solubility,83 mg/mL
same,IC50,"[6]; RSV, Strain Long, HEP-2 cells, plaque assay, read-out: IC50",> 100 µM
same,IC50,[8],> 100 µM
